In US11548884B2, “Cyclic amidine compounds for the treatment of autoimmune disease” (Hoffmann-La Roche Inc., priority 2018, dated 2023):

Target: T1, human TLR7 (Homo sapiens, UniProt Q9NYK1)
T1 sequence (Q9NYK1 27-1049): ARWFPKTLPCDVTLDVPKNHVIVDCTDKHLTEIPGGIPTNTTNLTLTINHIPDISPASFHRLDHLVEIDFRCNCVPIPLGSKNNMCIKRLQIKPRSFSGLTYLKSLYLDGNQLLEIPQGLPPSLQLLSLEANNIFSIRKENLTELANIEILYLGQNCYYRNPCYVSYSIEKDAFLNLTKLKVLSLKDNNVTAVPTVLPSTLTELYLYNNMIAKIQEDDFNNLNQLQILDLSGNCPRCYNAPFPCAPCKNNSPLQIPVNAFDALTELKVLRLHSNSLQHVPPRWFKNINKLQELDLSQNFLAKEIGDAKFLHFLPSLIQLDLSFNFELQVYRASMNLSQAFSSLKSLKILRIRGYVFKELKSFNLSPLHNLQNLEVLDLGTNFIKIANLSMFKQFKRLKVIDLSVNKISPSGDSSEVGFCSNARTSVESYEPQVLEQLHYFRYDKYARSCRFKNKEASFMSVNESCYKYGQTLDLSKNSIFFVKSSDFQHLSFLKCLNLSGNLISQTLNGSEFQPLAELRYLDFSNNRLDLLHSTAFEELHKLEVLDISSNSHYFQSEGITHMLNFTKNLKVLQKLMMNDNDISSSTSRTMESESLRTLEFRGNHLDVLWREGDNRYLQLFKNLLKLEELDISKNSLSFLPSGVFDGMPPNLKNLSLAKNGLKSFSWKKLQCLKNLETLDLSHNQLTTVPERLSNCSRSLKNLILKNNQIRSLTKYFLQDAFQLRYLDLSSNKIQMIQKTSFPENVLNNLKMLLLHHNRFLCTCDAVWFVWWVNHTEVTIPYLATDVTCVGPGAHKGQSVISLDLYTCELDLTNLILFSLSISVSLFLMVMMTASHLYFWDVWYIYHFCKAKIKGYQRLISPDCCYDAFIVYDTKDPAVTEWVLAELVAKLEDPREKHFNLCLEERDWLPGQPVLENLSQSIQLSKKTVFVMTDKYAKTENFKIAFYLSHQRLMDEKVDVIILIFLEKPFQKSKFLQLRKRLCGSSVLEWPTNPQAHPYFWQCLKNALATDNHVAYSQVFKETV
Test: HEK293-Blue-hTLR-7 cells assay (SEAP reporter, R848 stimulation)
Assay type: cell-based
Conditions: HEK293-Blue-hTLR7 cells, R848 ligand, 20 h incubation
Protocol: The following tests were carried out in order to determine the activity of the compounds of formula (I) in HEK293-Blue-hTLR-7/8/9 cells assay.
HEK293-Blue-hTLR-7 Cells Assay:
A stable HEK293-Blue-hTLR-7 cell line was purchased from InvivoGen (Cat. #: hkb-htlr7, San Diego, Calif., USA). These cells were originally designed for studying the stimulation of human TLR7 by monitoring the activation of NF-κB. A SEAP (secreted embryonic alkaline phosphatase) reporter gene was placed under the control of the IFN-β minimal promoter fused to five NF-κB and AP-1-binding sites. The SEAP was induced by activating NF-κB and AP-1 via stimulating HEK-Blue hTLR7 cells with TLR7 ligands. Therefore the reporter expression was declined by TLR7 antagonist under the stimulation of a ligand, such as R848 (Resiquimod), for incubation of 20 h. The cell culture supernatant SEAP reporter activity was determined using QUANTI-Blue™ kit (Cat. #: rep-qb1, Invivogen, San Diego, Calif., USA) at a wavelength of 640 nm, a detection medium that turns purple or blue in the presence of alkaline phosphatase.
HEK293-Blue-hTLR7 cells were incubated at a density of 250,000˜450,000 cells/mL in a volume of 170 μL in a 96-well plate in Dulbecco's Modified Eagle's medium (DMEM) containing 4.5 g/L glucose, 50 U/mL penicillin, […], […], 2 mM L-glutamine, 10% (v/v) heat-inactivated fetal bovine serum with addition of 20 μL test compound in a serial dilution in the presence of final DMSO at 1% and 10 μL of 20 uM R848 in above DMEM, perform incubation under 37° C. in a CO2 incubator for 20 h. Then 20 μL of the supernatant from each well was incubated with 180 μL Quanti-blue substrate solution at 37° C. for 2 h and the absorbance was read at 620-655 nm using a spectrophotometer. The signalling pathway that TLR7 activation leads to downstream NF-κB activation has been widely accepted, and therefore similar reporter assay was modified for evaluating TLR7 antagonist.

Q: C[C@@H]1CN(c2ccc(C#N)c3ncccc23)C[C@H](C2=Nc3cccc(N4CCNCC4)c3CN2)O1 [Example 6, 5-[(2R,6R)-2-methyl-6-(5-piperazin-1-yl-3,4-dihydroquinazolin-2-yl)morpholin-4-yl]quinoline-8-carbonitrile] was tested. Which IC50 did it give?
A: 0.04 µM

Q: For C[C@@H]1CN(c2ccc(C#N)c3ncccc23)C[C@H](C2=Nc3ccc(N4CCNCC4)cc3CN2)O1 [Example 7, 5-[(2R,6R)-2-methyl-6-(6-piperazin-1-yl-3,4-dihydroquinazolin-2-yl)morpholin-4-yl]quinoline-8-carbonitrile], which IC50 is on record?
A: 0.012 µM

Q: With C[C@@H]1CN(c2ccc(C#N)c3ncccc23)C[C@H](C2=Nc3cc(N4CCNCC4)ccc3CN2)O1 [Example 8, 5-[(2R,6R)-2-methyl-6-(7-piperazin-1-yl-3,4-dihydroquinazolin-2-yl)morpholin-4-yl]quinoline-8-carbonitrile] as the compound, how does the IC50 read?
A: 0.018 µM

Q: With C[C@@H]1CN(c2ccc(C#N)c3ncccc23)C[C@H](C2=Nc3c(cccc3N3CCNCC3)CN2)O1 [Example 9, 5-[(2R,6R)-2-methyl-6-(8-piperazin-1-yl-3,4-dihydroquinazolin-2-yl)morpholin-4-yl]quinoline-8-carbonitrile] as the compound, how does the IC50 read?
A: 0.036 µM

Q: C[C@@H]1CN(c2ccc(C#N)c3ncccc23)C[C@H](C2=Nc3cccc(N4CCN(C)CC4)c3CN2)O1 [Example 12, 5-[(2R,6R)-2-methyl-6-[5-(4-methylpiperazin-1-yl)-3,4-dihydroquinazolin-2-yl]morpholin-4-yl]quinoline-8-carbonitrile] was tested. Which IC50 did it give?
A: 0.083 µM

Q: C[C@@H]1CN(c2ccc(C#N)c3ncccc23)C[C@H](C2=Nc3cccc(N4CCC5(CCNC5)C4)c3CN2)O1 (stereo partly drawn) [Example 13, 5-[(2R,6R)-2-[5-(2,7-diazaspiro[4.4]nonan-2-yl)-3,4-dihydroquinazolin-2-yl]-6-methyl-morpholin-4-yl]quinoline-8-carbonitrile] was tested. Which IC50 did it give?
A: 0.294 µM

Q: With C[C@@H]1CN(c2ccc(C#N)c3ncccc23)C[C@H](C2=Nc3cccc(C4=CCNCC4)c3CCN2)O1 [Example 16, 5-[(2R,6R)-2-methyl-6-[6-(1,2,3,6-tetrahydropyridin-4-yl)-4,5-dihydro-3H-1,3-benzodiazepin-2-yl]morpholin-4-yl]quinoline-8-carbonitrile] as the compound, how does the IC50 read?
A: 0.251 µM

Q: How did the IC50 turn out when C[C@@H]1CN(c2ccc(C#N)c3ncccc23)C[C@H](C2=Nc3ccc(N4CCNCC4)cc3CCN2)O1 [Example 17, 5-[(2R,6R)-2-methyl-6-(7-piperazin-1-yl-4,5-dihydro-3H-1,3-benzodiazepin-2-yl)morpholin-4-yl]quinoline-8-carbonitrile] was run?
A: 0.362 µM

Q: Which IC50 does the source give for C[C@@H]1CN(c2ccc(C#N)c3ncccc23)C[C@H](C2=Nc3cccc(C4CCNCC4)c3CN2)O1 [Example 18, 5-[(2R,6R)-2-methyl-6-[5-(4-piperidyl)-3,4-dihydroquinazolin-2-yl]morpholin-4-yl]quinoline-8-carbonitrile] here?
A: 0.13 µM
